According to article PMC11061460, “Acyl pyrazole sulfonamides as new antidiabetic agents: synthesis, glucosidase inhibition studies, and molecular docking analysis” (Frontiers in Chemistry, 2024):
Like-named read-outs stand apart in the source and are kept apart here.

How the values were obtained:
α-glucosidase = α-glucosidase (Saccharomyces cerevisiae, UniProt P53341); experiment: biochemical; type: biochemical
β-glucosidase = β-glucosidase inhibitory assay in 96-well plates (p-NPG, absorbance 405 nm); type: biochemical; details: concentration of 1 mM; end concentration of 100 µM in each well
Procedure: An already established method was employed to perform α- and β-glucosidase inhibitory assays in 96-well plates ([Kazmi et al., 2017]). In this assay, phosphate buffer (0.07 M pH 6.8) was used to prepare 2.5 U/mL of α-glucosidase, 2.0 U/mL of β-glucosidase, and substrate 4-nitrophenyl-β-D-glucopyranoside (p-NPG) (10 mM) solutions. In addition, 1 mM solution of each test compound was prepared in 10% DMSO to achieve an end concentration of 100 µM in each well. Initially, 10 µL of the respective enzyme was incubated with 10 µL of test compounds for 5 min at 37 °C. Subsequently, 10 µL of p-NPG was added in each well followed by an incubation period of 30 min at 37 °C before adding 80 µL of Na2CO3 (200 mM) as a stop solution to each well. The absorbance was measured at 405 nm, and the percentage inhibition for each of the test compounds was determined by the following equation.
Percentage inhibition = 100–[Slope of test compound/Slope of enzyme control] × 100.
Acarbose was used as a standard drug for evaluating the efficacy of test compounds against α- and β-glucosidase. The inhibitory concentration 50 (IC50) for each of the test compound was determined by GraphPad prism version 10.0.

[1] = read-out: α-glucosidase inhibition IC50 ± SEM

Sequence of α-glucosidase (P53341 whole entry): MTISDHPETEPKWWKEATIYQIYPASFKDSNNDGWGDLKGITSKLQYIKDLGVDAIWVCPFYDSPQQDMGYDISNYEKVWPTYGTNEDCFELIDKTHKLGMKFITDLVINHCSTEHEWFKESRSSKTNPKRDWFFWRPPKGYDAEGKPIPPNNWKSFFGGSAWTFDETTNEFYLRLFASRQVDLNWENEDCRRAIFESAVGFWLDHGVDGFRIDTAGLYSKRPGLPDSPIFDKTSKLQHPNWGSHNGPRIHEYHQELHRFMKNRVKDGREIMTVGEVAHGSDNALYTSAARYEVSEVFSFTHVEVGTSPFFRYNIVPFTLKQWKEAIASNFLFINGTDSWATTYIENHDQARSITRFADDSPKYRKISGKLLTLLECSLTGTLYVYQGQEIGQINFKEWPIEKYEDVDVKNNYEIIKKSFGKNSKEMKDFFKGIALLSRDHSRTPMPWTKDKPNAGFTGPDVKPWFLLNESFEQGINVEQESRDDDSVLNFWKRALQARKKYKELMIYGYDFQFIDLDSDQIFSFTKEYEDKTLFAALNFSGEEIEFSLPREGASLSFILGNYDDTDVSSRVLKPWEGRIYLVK

IC50 (α-glucosidase; [1]) [µM] | SMILES | β-glucosidase inhibition %age inhibition (β-glucosidase) [%] | IC50 (α-glucosidase) [µM] | melting point [°C] | reduction in activity on switching chlorine from para- to meta-position (α-glucosidase; relative to 5a) [%] | potency relative to acarbose (times/fold more potent) (α-glucosidase)
2.77 ± 0.24 | Cc1nn(C(=O)c2cccc([N+](=O)[O-])c2)c(C)c1/N=N/c1ccc(S(N)(=O)=O)cc1 [Compound 5f, (E)-4-((3,5-Dimethyl-1-(3-nitrobenzoyl)-1H-pyrazol-4-yl)diazenyl)benzenesulfonamide] | 27.4 | – | – | – | –
– | C[C@H]1O[C@H](O[C@H]2[C@H](O)[C@@H](O)[C@@H](O[C@H]3[C@H](O)[C@@H](O)C(O)O[C@@H]3CO)O[C@@H]2CO)[C@H](O)[C@@H](O)[C@@H]1N[C@H]1C=C(CO)[C@@H](O)[C@H](O)[C@H]1O (stereo partly shown) [Acarbose, reference compound] | 63.7 | – | – | – | –
– | Cc1ccccc1C(=O)n1nc(C)c(/N=N/c2ccc(S(N)(=O)=O)cc2)c1C [Compound 5g, (E)-4-((3,5-Dimethyl-1-(2-methylbenzoyl)-1H-pyrazol-4-yl)diazenyl)benzenesulfonamide] | 21.0 | 3.47 ± 0.43 | – | – | –
– | COc1ccc(C(=O)n2nc(C)c(/N=N/c3ccc(S(N)(=O)=O)cc3)c2C)cc1OC [Compound 5d, (E)-4-((1-(3,4-Dimethoxybenzoyl)-3,5-dimethyl-1H-pyrazol-4-yl)diazenyl)benzenesulfonamide] | 18.5 | 4.53 ± 0.12 | 226 to 228 | – | –
9.22 ± 0.45 | Cc1ccc(C(=O)n2nc(C)c(/N=N/c3ccc(S(N)(=O)=O)cc3)c2C)cc1 [Compound 5h, (E)-4-((3,5-Dimethyl-1-(4-methylbenzoyl)-1H-pyrazol-4-yl)diazenyl)benzenesulfonamide] | 14.6 | – | 218 to 220 | – | –
– | Cc1nn(C(=O)c2cccc(Cl)c2)c(C)c1/N=N/c1ccc(S(N)(=O)=O)cc1 [Compound 5b, (E)-4-((1-(3-Chlorobenzoyl)-3,5-dimethyl-1H-pyrazol-4-yl)diazenyl)benzenesulfonamide] | 32.1 | 2.22 ± 0.11 | – | 50 | –
– | Cc1nn(C(=O)c2ccc(Br)cc2)c(C)c1/N=N/c1ccc(S(N)(=O)=O)cc1 [Compound 5i, (E)-4-((1-(4-Bromobenzoyl)-3,5-dimethyl-1H-pyrazol-4-yl)diazenyl)benzenesulfonamide] | 11.2 | 19.1 ± 1.07 | 235 to 237 | – | –
– | Cc1n[nH]c(C)c1/N=N/c1ccc(S(N)(=O)=O)cc1 [Compound 5k, (E)-4-((3,5-Dimethyl-1H-pyrazol-4-yl)diazenyl)benzenesulfonamide] | 25.1 | 28.3 ± 1.45 | 188 to 190 | – | –
– | Cc1nn(C(=O)c2ccc(Cl)cc2)c(C)c1/N=N/c1ccc(S(N)(=O)=O)cc1 [Compound 5a, (E)-4-((1-(4-Chlorobenzoyl)-3,5-dimethyl-1H-pyrazol-4-yl)diazenyl)benzenesulfonamide] | 34.3 | 1.13 ± 0.06 | – | – | –
3.29 ± 0.09 | COc1ccc(C(=O)n2nc(C)c(/N=N/c3ccc(S(N)(=O)=O)cc3)c2C)cc1 [Compound 5c, (E)-4-((1-(4-Methoxybenzoyl)-3,5-dimethyl-1H-pyrazol-4-yl)diazenyl)benzenesulfonamide] | 12.9 | – | 202 to 205 | – | –
– | COc1cccc(C(=O)n2nc(C)c(/N=N/c3ccc(S(N)(=O)=O)cc3)c2C)c1 [Compound 5j, (E)-4-((1-(3-Methoxybenzoyl)-3,5-dimethyl-1H-pyrazol-4-yl)diazenyl)benzenesulfonamide] | 7.55 | 17.9 ± 1.16 | – | – | –

SMILES | IC50 (α-glucosidase; [1]) [µM] | β-glucosidase inhibition %age inhibition (β-glucosidase) [%] | IC50 (α-glucosidase) [µM] | melting point [°C] | reduction in activity on switching chlorine from para- to meta-position (α-glucosidase; relative to 5a) [%] | potency relative to acarbose (times/fold more potent) (α-glucosidase)
Cc1nn(C(=O)c2ccc([N+](=O)[O-])cc2)c(C)c1/N=N/c1ccc(S(N)(=O)=O)cc1 [Compound 5e, (E)-4-((3,5-Dimethyl-1-(4-nitrobenzoyl)-1H-pyrazol-4-yl)diazenyl)benzenesulfonamide] | 4.11 ± 0.19 | 11.7 | – | 231 to 233 | – | eight
